In ChEMBL document CHEMBL1909046, “DrugMatrix in vitro pharmacology data”:

What was measured:
Cytochrome P450 2E1 = Cytochrome P450 2E1 (Homo sapiens, UniProt P05181); settings: bti-tn-5b1-4; also: in other assays of this panel Not Active means under 50% inhibition at 10 µM
Interstitial collagenase = target: T1, Interstitial collagenase (Homo sapiens, UniProt P03956); test: biochemical; assay type: tissue-based, Rheumatoid synovial fibroblasts;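 also: MMP-1 enzyme inhibition assay using a peptide substrate; in other assays of this panel Not Active means under 50% inhibition at 10 µM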
T1 sequence (P03956 whole entry): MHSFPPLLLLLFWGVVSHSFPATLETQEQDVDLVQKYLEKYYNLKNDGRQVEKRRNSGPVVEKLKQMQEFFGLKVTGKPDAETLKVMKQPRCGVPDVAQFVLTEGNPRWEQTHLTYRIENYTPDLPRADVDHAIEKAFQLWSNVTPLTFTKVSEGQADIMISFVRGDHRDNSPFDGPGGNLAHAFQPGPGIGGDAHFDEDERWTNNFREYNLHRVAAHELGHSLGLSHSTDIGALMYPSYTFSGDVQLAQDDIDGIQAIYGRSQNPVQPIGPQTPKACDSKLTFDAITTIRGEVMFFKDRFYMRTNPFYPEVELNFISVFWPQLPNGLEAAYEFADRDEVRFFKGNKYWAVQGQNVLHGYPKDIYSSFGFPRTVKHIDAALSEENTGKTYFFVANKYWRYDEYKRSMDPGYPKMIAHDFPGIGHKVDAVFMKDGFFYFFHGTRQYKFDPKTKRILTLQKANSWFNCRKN

Leukotriene C4 synthase = target: T2, Leukotriene C4 synthase (Cavia porcellus, UniProt A6XA80); test: biochemical; assay type: tissue-based, Lung;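 also: enzyme inhibition assay of leukotriene C4 synthase, using LTA4 as the substrate; in other assays of this panel Not Active means under 50% inhibition at 10 µM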
T2 sequence (A6XA80 whole entry): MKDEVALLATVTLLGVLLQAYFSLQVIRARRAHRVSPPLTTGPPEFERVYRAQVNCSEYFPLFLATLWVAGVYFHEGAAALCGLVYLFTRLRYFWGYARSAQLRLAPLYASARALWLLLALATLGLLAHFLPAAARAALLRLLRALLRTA

Adenosine receptor A1 = target: T3, Adenosine receptor A1 (Homo sapiens, UniProt P30542); assay type: cell membranes, CHO, Membrane; settings: cho;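 also: radioligand binding assay at the adenosine A1 receptor, with DPCPX serving as the labelled ligand; in other assays of this panel Not Active means under 50% inhibition at 10 µM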
T3 sequence (P30542 whole entry): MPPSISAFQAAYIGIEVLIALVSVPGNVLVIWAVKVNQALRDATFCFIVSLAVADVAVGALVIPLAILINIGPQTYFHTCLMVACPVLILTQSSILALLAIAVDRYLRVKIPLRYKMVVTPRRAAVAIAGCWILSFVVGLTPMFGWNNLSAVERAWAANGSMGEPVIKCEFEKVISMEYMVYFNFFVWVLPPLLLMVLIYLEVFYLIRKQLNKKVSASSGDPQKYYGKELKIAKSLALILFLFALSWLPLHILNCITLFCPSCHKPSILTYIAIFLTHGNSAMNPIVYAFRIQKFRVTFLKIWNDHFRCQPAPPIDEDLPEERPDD

[1] = DRUGMATRIX: Purinergic P2X radioligand binding (ligand: [3H] alpha, beta-Methylene-ATP); assay type: cell membranes, Oryctolagus cuniculus, New Zealand albino, Urinary bladder, Membrane; settings: Not Active = under 50% inhibition at 10 µM
[2] = target: T4, Nitric oxide synthase, inducible (Mus musculus, UniProt P29477); design: species or system Escherichia coli
T4 sequence (P29477 whole entry): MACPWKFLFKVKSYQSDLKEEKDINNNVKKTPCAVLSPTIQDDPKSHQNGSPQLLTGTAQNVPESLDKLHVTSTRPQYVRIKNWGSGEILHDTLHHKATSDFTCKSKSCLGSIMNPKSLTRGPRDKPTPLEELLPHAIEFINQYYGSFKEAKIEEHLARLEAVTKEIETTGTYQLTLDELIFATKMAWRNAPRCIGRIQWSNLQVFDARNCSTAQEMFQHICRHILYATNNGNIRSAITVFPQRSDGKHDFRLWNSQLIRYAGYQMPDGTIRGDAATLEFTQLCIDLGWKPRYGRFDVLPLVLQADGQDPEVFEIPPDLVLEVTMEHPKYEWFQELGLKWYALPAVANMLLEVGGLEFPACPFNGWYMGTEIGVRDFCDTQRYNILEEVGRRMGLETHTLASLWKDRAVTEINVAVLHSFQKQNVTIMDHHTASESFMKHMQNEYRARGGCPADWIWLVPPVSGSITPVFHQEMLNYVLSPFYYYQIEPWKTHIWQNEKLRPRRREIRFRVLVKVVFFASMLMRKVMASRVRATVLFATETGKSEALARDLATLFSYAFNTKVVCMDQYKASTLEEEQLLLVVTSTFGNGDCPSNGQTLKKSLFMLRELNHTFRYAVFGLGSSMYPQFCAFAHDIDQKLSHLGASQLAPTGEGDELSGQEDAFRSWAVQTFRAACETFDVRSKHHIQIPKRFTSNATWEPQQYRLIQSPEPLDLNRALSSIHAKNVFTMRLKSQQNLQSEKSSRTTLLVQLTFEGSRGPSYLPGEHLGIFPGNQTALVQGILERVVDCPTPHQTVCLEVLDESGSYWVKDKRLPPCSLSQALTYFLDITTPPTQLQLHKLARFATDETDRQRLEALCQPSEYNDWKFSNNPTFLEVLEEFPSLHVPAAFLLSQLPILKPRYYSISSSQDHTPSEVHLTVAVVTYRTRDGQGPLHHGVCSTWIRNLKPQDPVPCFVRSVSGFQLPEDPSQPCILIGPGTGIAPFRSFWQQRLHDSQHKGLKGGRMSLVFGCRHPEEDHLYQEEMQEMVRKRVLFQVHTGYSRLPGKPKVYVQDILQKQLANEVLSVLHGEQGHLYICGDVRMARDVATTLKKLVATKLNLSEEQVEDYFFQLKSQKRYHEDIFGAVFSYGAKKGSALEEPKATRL

[3] = DRUGMATRIX: Sodium/nucleoside co-transporter radioligand binding (ligand: nitrobenzylthioinosine); assay type: cell membranes, Cavia porcellus, Dunkin-Hartley, Cerebral cortex, Membrane; settings: Not Active = under 50% inhibition at 10 µM
[4] = target: Tyrosine-protein kinase Lck (Homo sapiens, UniProt P06239); test: DRUGMATRIX: Protein Tyrosine Kinase, LCK enzyme inhibition (substrate: Poly(Glu:Tyr)); assay type: cell-based, Insect cells; settings: insect cells; Not Active = under 50% inhibition at 10 µM
Chain of Tyrosine-protein kinase Lck (P06239 whole entry): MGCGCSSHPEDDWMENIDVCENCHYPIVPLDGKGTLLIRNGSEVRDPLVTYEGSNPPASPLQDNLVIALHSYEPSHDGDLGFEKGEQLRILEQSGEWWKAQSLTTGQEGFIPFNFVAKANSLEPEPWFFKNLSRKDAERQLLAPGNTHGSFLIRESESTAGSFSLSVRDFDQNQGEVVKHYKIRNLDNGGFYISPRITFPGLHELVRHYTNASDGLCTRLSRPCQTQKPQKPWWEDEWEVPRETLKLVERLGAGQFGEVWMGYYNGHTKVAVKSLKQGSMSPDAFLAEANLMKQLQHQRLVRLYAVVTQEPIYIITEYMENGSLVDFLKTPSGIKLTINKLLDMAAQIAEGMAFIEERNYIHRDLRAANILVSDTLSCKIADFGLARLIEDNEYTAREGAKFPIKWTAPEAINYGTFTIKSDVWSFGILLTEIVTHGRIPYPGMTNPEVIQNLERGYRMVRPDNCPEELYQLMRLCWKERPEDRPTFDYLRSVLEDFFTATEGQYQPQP

[5] = target: Tyrosine-protein kinase Fyn (Homo sapiens, UniProt P06241); test: biochemical; assay type: cell-based, Insect cells; settings: insect cells
Chain of Tyrosine-protein kinase Fyn (P06241 whole entry): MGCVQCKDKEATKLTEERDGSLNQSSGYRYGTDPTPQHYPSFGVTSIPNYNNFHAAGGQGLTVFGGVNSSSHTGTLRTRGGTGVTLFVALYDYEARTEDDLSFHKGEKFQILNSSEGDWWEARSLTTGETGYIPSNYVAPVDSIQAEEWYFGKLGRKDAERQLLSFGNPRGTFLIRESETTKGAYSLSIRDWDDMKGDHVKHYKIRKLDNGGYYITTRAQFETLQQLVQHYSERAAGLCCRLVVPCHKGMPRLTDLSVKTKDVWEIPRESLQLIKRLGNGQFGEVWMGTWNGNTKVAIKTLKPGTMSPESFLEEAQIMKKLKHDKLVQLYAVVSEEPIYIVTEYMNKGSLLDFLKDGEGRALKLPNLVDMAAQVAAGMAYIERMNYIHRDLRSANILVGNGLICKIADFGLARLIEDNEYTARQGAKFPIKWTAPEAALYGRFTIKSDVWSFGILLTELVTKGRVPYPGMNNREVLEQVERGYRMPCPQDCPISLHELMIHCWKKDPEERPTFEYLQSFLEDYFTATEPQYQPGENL

Chain of Cytochrome P450 2E1 (P05181 whole entry): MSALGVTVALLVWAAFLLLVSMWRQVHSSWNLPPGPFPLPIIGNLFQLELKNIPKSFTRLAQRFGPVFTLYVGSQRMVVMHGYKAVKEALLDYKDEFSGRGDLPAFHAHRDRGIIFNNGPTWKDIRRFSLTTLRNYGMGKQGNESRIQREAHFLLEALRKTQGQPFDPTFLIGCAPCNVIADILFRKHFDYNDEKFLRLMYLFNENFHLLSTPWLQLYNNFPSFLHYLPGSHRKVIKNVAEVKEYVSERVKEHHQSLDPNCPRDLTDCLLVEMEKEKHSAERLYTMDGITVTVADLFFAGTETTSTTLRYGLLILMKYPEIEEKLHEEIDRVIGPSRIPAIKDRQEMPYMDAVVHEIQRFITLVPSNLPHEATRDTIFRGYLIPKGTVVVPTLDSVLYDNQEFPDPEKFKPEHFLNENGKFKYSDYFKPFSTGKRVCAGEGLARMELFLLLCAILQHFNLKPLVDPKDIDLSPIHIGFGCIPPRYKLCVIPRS

Cc1ccnc2c1NC(=O)c1cccnc1N2C1CC1 [NEVIRAPINE]
Not Active: IC50 (Cytochrome P450 2E1) | Ki (Cytochrome P450 2E1) | IC50 (Interstitial collagenase) | IC50 (Leukotriene C4 synthase) | IC50 (Adenosine receptor A1) | IC50 [1] | Ki [1] | IC50 [2] | IC50 [3] | Ki [3] | IC50 [4] | IC50 [5]

COPPER(II) OXIDE
Not Active: IC50 (Cytochrome P450 2E1) | Ki (Cytochrome P450 2E1) | IC50 (Interstitial collagenase) | Ki (Interstitial collagenase) | IC50 (Leukotriene C4 synthase) | Ki (Leukotriene C4 synthase) | IC50 (Adenosine receptor A1) | Ki (Adenosine receptor A1) | IC50 [1] | Ki [1] | IC50 [2] | Ki [2] | IC50 [3] | Ki [3] | IC50 [4] | Ki [4] | IC50 [5] | Ki [5]

OC[C@H]1O[C@@H]2O[C@H]3[C@H](O)[C@@H](O)[C@@H](O[C@H]4[C@H](O)[C@@H](O)[C@@H](O[C@H]5[C@H](O)[C@@H](O)[C@@H](O[C@H]6[C@H](O)[C@@H](O)[C@@H](O[C@H]7[C@H](O)[C@@H](O)[C@@H](O[C@H]8[C@H](O)[C@@H](O)[C@@H](O[C@H]1[C@H](O)[C@H]2O)O[C@@H]8CO)O[C@@H]7CO)O[C@@H]6CO)O[C@@H]5CO)O[C@@H]4CO)O[C@@H]3CO [BETADEX]
Not Active: IC50 (Cytochrome P450 2E1) | Ki (Cytochrome P450 2E1) | IC50 (Interstitial collagenase) | IC50 (Leukotriene C4 synthase) | IC50 (Adenosine receptor A1) | IC50 [1] | Ki [1] | IC50 [2] | IC50 [3] | Ki [3] | IC50 [4] | IC50 [5]

O=C(O)CO [GLYCOLIC ACID]
Not Active: IC50 (Cytochrome P450 2E1) | Ki (Cytochrome P450 2E1) | IC50 (Interstitial collagenase) | IC50 (Leukotriene C4 synthase) | IC50 (Adenosine receptor A1) | IC50 [1] | Ki [1] | IC50 [2] | IC50 [3] | Ki [3] | IC50 [4] | IC50 [5]

COc1cc(NC(C)CCCN)c2ncccc2c1 (stereo not drawn) [PRIMAQUINE]
Not Active: IC50 (Cytochrome P450 2E1) | Ki (Cytochrome P450 2E1) | IC50 (Interstitial collagenase) | IC50 (Leukotriene C4 synthase) | IC50 (Adenosine receptor A1) | IC50 [1] | Ki [1] | IC50 [2] | IC50 [3] | Ki [3] | IC50 [4] | IC50 [5]

COc1ccc(Cl)cc1C(=O)NCCc1ccc(S(=O)(=O)NC(=O)NC2CCCCC2)cc1 [GLYBURIDE]
Not Active: IC50 (Cytochrome P450 2E1) | Ki (Cytochrome P450 2E1) | IC50 (Interstitial collagenase) | IC50 (Leukotriene C4 synthase) | IC50 (Adenosine receptor A1) | IC50 [1] | Ki [1] | IC50 [2] | IC50 [3] | Ki [3] | IC50 [4] | IC50 [5]

CCO [ALCOHOL]
Not Active: IC50 (Cytochrome P450 2E1) | Ki (Cytochrome P450 2E1) | IC50 (Interstitial collagenase) | IC50 (Leukotriene C4 synthase) | IC50 (Adenosine receptor A1) | IC50 [1] | Ki [1] | IC50 [2] | IC50 [3] | Ki [3] | IC50 [4] | IC50 [5]

CC(C)(c1ccc(O)cc1)c1ccc(O)cc1 [BISPHENOL A]
Not Active: IC50 (Cytochrome P450 2E1) | Ki (Cytochrome P450 2E1) | IC50 (Interstitial collagenase) | IC50 (Leukotriene C4 synthase) | IC50 (Adenosine receptor A1) | IC50 [1] | Ki [1] | IC50 [2] | IC50 [3] | Ki [3] | IC50 [4] | IC50 [5]

CC12CCC(CC1=O)C2(C)C (stereo not drawn) [CAMPHOR]
Not Active: IC50 (Cytochrome P450 2E1) | Ki (Cytochrome P450 2E1) | IC50 (Interstitial collagenase) | IC50 (Leukotriene C4 synthase) | IC50 (Adenosine receptor A1) | IC50 [1] | Ki [1] | IC50 [2] | IC50 [3] | Ki [3] | IC50 [4] | IC50 [5]

O=C(O)c1ccccc1 [BENZOIC ACID]
Not Active: IC50 (Cytochrome P450 2E1) | Ki (Cytochrome P450 2E1) | IC50 (Interstitial collagenase) | IC50 (Leukotriene C4 synthase) | IC50 (Adenosine receptor A1) | IC50 [1] | Ki [1] | IC50 [2] | IC50 [3] | Ki [3] | IC50 [4] | IC50 [5]

Oc1ncnc2[nH]ncc12 [ALLOPURINOL]
Not Active: IC50 (Cytochrome P450 2E1) | Ki (Cytochrome P450 2E1) | IC50 (Interstitial collagenase) | IC50 (Leukotriene C4 synthase) | IC50 (Adenosine receptor A1) | IC50 [1] | Ki [1] | IC50 [2] | IC50 [3] | Ki [3] | IC50 [4] | IC50 [5]

NC(=O)CN1CCCC1=O
Not Active: IC50 (Cytochrome P450 2E1) | Ki (Cytochrome P450 2E1) | IC50 (Interstitial collagenase) | IC50 (Leukotriene C4 synthase) | IC50 (Adenosine receptor A1) | IC50 [1] | Ki [1] | IC50 [2] | IC50 [3] | Ki [3] | IC50 [4] | IC50 [5]

C=CCO [ALLYL ALCOHOL]
Not Active: IC50 (Cytochrome P450 2E1) | Ki (Cytochrome P450 2E1) | IC50 (Interstitial collagenase) | IC50 (Leukotriene C4 synthase) | IC50 (Adenosine receptor A1) | IC50 [1] | Ki [1] | IC50 [2] | IC50 [3] | Ki [3] | IC50 [4] | IC50 [5]

CCN1CCN(C(=O)N[C@@H](C(=O)N[C@@H]2C(=O)N3[C@@H]2SC(C)(C)[C@@H]3C(=O)O)c2ccccc2)C(=O)C1=O [PIPERACILLIN]
Not Active: IC50 (Cytochrome P450 2E1) | Ki (Cytochrome P450 2E1) | IC50 (Interstitial collagenase) | IC50 (Leukotriene C4 synthase) | IC50 (Adenosine receptor A1) | IC50 [1] | Ki [1] | IC50 [2] | IC50 [3] | Ki [3] | IC50 [4] | IC50 [5]

CCCCCCNC(=O)n1cc(F)c(=O)[nH]c1=O [CARMOFUR]
Not Active: IC50 (Cytochrome P450 2E1) | Ki (Cytochrome P450 2E1) | IC50 (Interstitial collagenase) | IC50 (Leukotriene C4 synthase) | IC50 (Adenosine receptor A1) | IC50 [1] | Ki [1] | IC50 [2] | IC50 [3] | Ki [3] | IC50 [4] | IC50 [5]

CCN(CCO)CCCC(C)Nc1ccnc2cc(Cl)ccc12 (stereo not drawn) [HYDROXYCHLOROQUINE]
Not Active: IC50 (Cytochrome P450 2E1) | Ki (Cytochrome P450 2E1) | IC50 (Interstitial collagenase) | IC50 (Leukotriene C4 synthase) | IC50 (Adenosine receptor A1) | IC50 [1] | Ki [1] | IC50 [2] | IC50 [3] | Ki [3] | IC50 [4] | IC50 [5]
